The source of these data is paper PMC4514850, “A Novel TGR5 Activator WB403 Promotes GLP-1 Secretion and Preserves Pancreatic β-Cells in Type 2 Diabetic Mice” (PLoS ONE, 2015).

Structures are written as SMILES. Entries after “also recorded” stand apart in the source; their conditions may differ.

The test system of one data set is ICR mice. The data set can be described thus: 7-day acute toxicity test in ICR mice. The conditions noted are these: 6000 mg/kg group after 7-day acute toxicity test.
The nature of data set [1]: pharmacokinetic test in Sprague-Dawley rats. It counts as in vivo. The conditions noted are these: male, plasma, rat. The protocol:
Adult male Sprague-Dawley rats fasted for 12 h were randomized into two groups (n = 5) for intravenous injection (i.v.) or oral administration (p.o.). Blood samples were collected from the orbital plexus at 10, 20, 30, 40, 60, 90, 120, 150, 180, 240, 360 and 480 min after administration. The concentration of WB403 in plasma was determined by an Aligent Technologies 1260 series HPLC system with a DAD detector. The oral bioavailability (F%) was calculated as F (%) = AUC0-∞(p.o.) / AUC0-∞(i.v.) × Dose (i.v.) / Dose (p.o.).

In the next data set the target is T1, hGPR119 (Homo sapiens, UniProt Q8TDV5).
T1 construct: host or cells: 293T cells, transient transfection with pGPR119
T1 sequence (Q8TDV5 1-335): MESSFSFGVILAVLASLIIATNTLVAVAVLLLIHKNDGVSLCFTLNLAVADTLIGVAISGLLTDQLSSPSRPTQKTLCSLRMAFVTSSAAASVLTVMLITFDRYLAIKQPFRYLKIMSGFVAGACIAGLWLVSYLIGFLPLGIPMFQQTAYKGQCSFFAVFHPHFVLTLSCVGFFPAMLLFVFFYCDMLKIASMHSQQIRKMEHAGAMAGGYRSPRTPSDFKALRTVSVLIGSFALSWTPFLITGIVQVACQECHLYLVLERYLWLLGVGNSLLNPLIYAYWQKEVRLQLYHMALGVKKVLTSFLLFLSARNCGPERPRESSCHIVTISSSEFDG
The data set can be described thus: GPR119-dependent cAMP accumulation in transfected 293T cells. The format is cell-based. The conditions noted are these: 10, 20 μmol/l. The protocol:
For human TGR5 luciferase (luc) assay, 293T cells were co-transfected with pCRE-luc, pTGR5 (kind gift from Prof. Johan Auwerx, Ecole Polytechnique Fédérale de Lausanne, Lausanne, Switzerland) and pRenilla (Promega, USA). WB403 was added 5 h later. Cells were harvested after 16 h and subjected to luciferase analysis on Lumistar Optima chemiluminescent detector (BMG labtech, Germany). For cAMP testing, 293T cells transiently transfected with pTGR5 or pGPR119 (GeneCopoeia, USA) were washed by FBS-free DMEM, and stimulated with WB403 in FBS-free DMEM containing 3-isobutyl-1-methyl-xanthine (IBMX, Sigma). Cell lysates were collected 30 min later and used for cAMP ELISA assay. FLIPR Calcium 5 assay kit (Molecular Devices, USA) was used for calcium mobilization assay. 293-GPR40 stable cells (kindly provided by Prof. Naiming Zhou of Zhejiang University, Hanzhou, China) or 293 cells transient transfected with GPR120 were seeded at 50,000 cells per well in black-walled clear-bottomed 96-well plates (Costar). […] Increase of the intracellular Ca^2+ concentration was monitored by Flexstation 3 system (Molecular Devices, USA).
The GLP-1 (active) ELISA kit was purchased from Millipore, and insulin ELISA kit was from Mercodia. For quantitative determination of cAMP, a competitive enzyme immunoassay kit from R&D system was used. […]
A general note: cAMP levels reflect the balance of adenylyl cyclase and phosphodiesterase activity.

The subject of the next data set is primary enterocytes. The data set can be described thus: active GLP-1 secretion in primary enterocytes. The format is cell-based. The conditions noted are these: Fig 1G. The procedure:
Endocrine differentiation was induced by seeding NCI-H716 cells in plates coated with Matrigel (Becton Dickinson). Cells were washed with RPMI-1640 medium without FBS and incubated in the same medium containing indicated compounds at 10 μmol/l. The condition medium was collected after 30 min. GLP-1 secretion in MIN6 or primary enterocytes was conducted similarly. To isolate primary enterocytes, ileum or colon was cut into 2 cm length, rinsed by PBS (pH7.2∼7.4) before dispersed in 10 mmol/l EDTA/PBS (pH7.4) for 15 min at room temperature, followed by pipetting up and down. Enterocytes were collected by filtration through a 70 μm cell strainer. To study the effect of WB403 on GLP-1 secretion in vivo, mice in group of three were fasted overnight and orally received 0, 50, 100 mg/kg of WB403 dispersed in 0.5% CMC with a DPP-4 inhibitor (5 mg/kg). There were 5 animals in each group. 2 g/kg glucose was administrated 30 min later and blood was collected 10 min after glucose challenge.
The GLP-1 (active) ELISA kit was purchased from Millipore, and insulin ELISA kit was from Mercodia. For quantitative determination of cAMP, a competitive enzyme immunoassay kit from R&D system was used. All immunoassays were performed according to manufacturers’ instructions.

The test system of a further data set is gallbladders of mice. The data set can be described thus: gallbladder filling in normal mice. The format is in vivo. The conditions noted are these: 200 mg/kg ip, normal mice fasted overnight, gallbladders removed 30 min later, n = 10. The source says:
Fig 1 WB403 activated TGR5 and promoted active GLP-1 secretion. (A) WB403 stimulated hTGR5 in CRE-luciferase report system at the concentration range of 1–20 μmol/l. (B) WB403 stimulated hTGR5 specific cAMP accumulation at the concentration range of 1–50 μmol/l. n = 3. **p<0.01, ***p<0.001 vs. DMSO (+TGR5) group. (C) The hTGR5 targeted CRE-luciferase activity of WB403 and ZY403. […] (D) Effect of WB403 and ZY403 on gallbladders of mice. Normal mice were fasted overnight and treated with compounds (200 mg/kg) or vehicle (DMSO) by ip injection. Gallbladders (GB) were removed 30 min later and volumes measured then normalized to body weight (B.W.). n = 10. **p<0.01 vs. vehicle group. (E) Structure of WB403 and ZY403. WB403 promoted GLP-1 secretion in NCI-H716 cells (F), primary enterocytes (G), and MIN6 cells (H). n = 3. *p<0.05, **p<0.01, ***p<0.001 vs. vehicle group. (I) WB403 promoted GLP-1 in ICR mice. n = 5. **p<0.01 vs. vehicle group. Values represent mean ± SEM.

The mark [2] stands for this setting: iv, i.v. 40 mg/kg, mean ± SEM, n = 5.
[3] abbreviates: po, p.o. 40 mg/kg, mean ± SEM, n = 5.

Usually AUC(0-inf) stands for the area under the concentration-time curve extrapolated to infinity. The low end stands for less exposure, the high end for more exposure. By AUC(0-t) is commonly meant exposure summed from dosing to a finite time, without extrapolation to infinity. The low end stands for low exposure, the high end for high exposure. Usually half-life stands for how long it takes for the measured level to halve. A higher half-life goes with slow decline. As usually defined, the bioavailability is the share of a dose that reaches the circulation, judged against a reference dose that is usually intravenous. Higher therefore signals good availability. By Cmax is commonly meant the highest concentration seen after dosing. One may read the Tmax as the time at which the peak concentration occurs.

In the case of `CCc1cc(-c2nc(C)c(COCc3ccc(Br)cc3)s2)ccn1` [WB403, 4-(5-((4-bromobenzyloxy)-methyl)-4-methylthiazol-2-yl)-2-ethylpyridine], the “signs of toxicity in tissue sections (H&E)” value in the data set with ICR mice is given as “did not show obvious signs of toxicity”. In data set [1] (setting [2]), this compound showed an AUC(0-inf) of 26900 ng·h/mL, an AUC(0-t) of 25000 ng·h/mL, a C0 of 25700 ± 4600 ng/mL and a half-life of 2.77 ± 0.43 h. This compound also came in with a bioavailability in data set [1] (oral, p.o. 40 mg/kg vs i.v. 40 mg/kg, from AUC0-∞) of 12%. In data set [1] (setting [3]), the area under the curve AUC(0-inf) was 3220 ng·h/mL, the AUC(0-t) is 2280 ng·h/mL, the peak concentration (Cmax) is 980 ± 160 ng/mL and the Tmax was 1.4 h. This compound displayed a half-life in data set [1] (setting [3]) of 2.94 ± 1.08 h. Also, the “hGPR119 dependent cAMP accumulation” value on hGPR119 was “did not show significant stimulation activity; also recorded: no significant stimulation effect”. The “GLP-1 stimulation in primary enterocytes” value in the data set on primary enterocytes is listed as “outstanding effect in GLP-1 stimulation”. Besides, in the data set with gallbladders of mice, the gallbladder filling entry is “did not”.
